Results: publication PMC7815716, “Mechanistic basis of breast cancer resistance protein inhibition by new indeno[1,2-b]indoles” (Scientific Reports, 2021)
Where “and” joins values, the source holds several entries; their conditions need not be identical. Equal values may be shown once. Read-outs that look alike come from different tables or passages of the source.

What was measured:
ABCG2 [1] = molecular target: T1, ABCG2 (Homo sapiens, UniProt Q9UNQ0); assay: Inhibition of ABCG2-mediated mitoxantrone efflux (flow cytometry); type: cell-based; set-up: expressed in transfected cells; host or cells: HEK293; conditions: for inhibition at 30 min: human, probe mitoxantrone (10 µM), from IC50 fitted curves, HEK293-ABCG2, mitoxantrone, 100% = Ko143 0.5 µM, read-out: IMAX (%) ± SD, maximal inhibition percentage; for TR, therapeutic ratio (IG50/IC50): ratio between IG50 and IC50 values
T1 sequence (Q9UNQ0 1-655): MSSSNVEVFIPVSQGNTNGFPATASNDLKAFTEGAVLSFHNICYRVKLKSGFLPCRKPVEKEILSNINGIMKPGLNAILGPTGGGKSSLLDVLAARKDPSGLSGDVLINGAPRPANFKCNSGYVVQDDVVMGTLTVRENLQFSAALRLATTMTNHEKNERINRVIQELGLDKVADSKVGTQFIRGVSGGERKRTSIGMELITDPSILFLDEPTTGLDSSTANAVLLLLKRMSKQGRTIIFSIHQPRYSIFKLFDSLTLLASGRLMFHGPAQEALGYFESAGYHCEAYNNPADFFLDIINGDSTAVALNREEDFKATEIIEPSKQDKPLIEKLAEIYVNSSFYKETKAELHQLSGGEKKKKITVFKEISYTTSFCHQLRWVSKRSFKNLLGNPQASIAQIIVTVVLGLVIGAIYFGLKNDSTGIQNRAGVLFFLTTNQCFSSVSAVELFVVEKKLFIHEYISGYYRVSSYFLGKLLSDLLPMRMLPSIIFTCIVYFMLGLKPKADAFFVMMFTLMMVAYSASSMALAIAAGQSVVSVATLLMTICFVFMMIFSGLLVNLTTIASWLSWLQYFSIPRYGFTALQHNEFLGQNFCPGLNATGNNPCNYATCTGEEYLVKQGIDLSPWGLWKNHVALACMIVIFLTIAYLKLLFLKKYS
Method: ABCG2 inhibition assays were carried out on HEK293 WT and HEK293-ABCG2 cells. Cells were seeded at the density of 1 × 10^5 cells/well in 24 well culture plates and incubated for 48 h at 37 °C under 5% CO2. Cells were treated with compounds and 10 μM of mitoxantrone for 30 min at 37 °C and 5% CO2. After incubation the cells were washed with PBS, trypsinized and resuspended in ice cold PBS. The intracellular drug fluorescence was monitored with a FACS Calibur cytometer (Becton Dickinson) using the FL4 channel, with at least 10,000 events collected. The maximal fluorescence (taken as 100%) was determined with the difference between the mean fluorescence of HEK-ABCG2 cells incubated with 0.5 μM Ko143 (ABCG2 reference inhibitor) or by using the HEK293 WT cell line as a control and cells without inhibitor (mitoxantrone alone). The percent of inhibition was determined as previously described. For bimodulation assays the cells were concomitantly treated with 10 μM of one or two combined inhibitors under similar conditions as described previously. For washing assays, cells were treated with 10 μM concentrations of compounds for 30 min. Then, the medium with the inhibitor was removed and the cells were washed with PBS and incubated only with culture medium for different periods of time (0.5 and 3 h). After incubation, cells were exposed to 5 µM mitoxantrone for 30 min, and then analyzed by flow cytometry. The percentage of transport inhibition was calculated by the following equation: %Inhibition=C-S/I-S×100 where “C” corresponds to the intracellular fluorescence of cells in the presence of the tested compounds and substrate (mitoxantrone to ABCG2, Rhodamine 123 to ABCB1 and calcein to ABCC1), “S” corresponds to the intracellular fluorescence of cells in the presence of substrate alone, and “I” corresponds to the intracellular fluorescence of cells in the presence of the substrate and reference inhibitor (Ko143 to ABCG2, GF120918 to ABCB1 and verapamil to ABCC1).

[2] = Intrinsic cytotoxicity of compounds, MTT assay; type: cell-based, human; conditions: human, HEK293 WT and HEK293-ABCG2 cells, MTT, read-out: IG50 (µM) ± SD, cytotoxicity (half-maximal cell viability)
Method: (§1) Cell viability was evaluated with a 3-(4,5-dimethylthiazol-2-yl)-2,5-diphenyltetrazolium bromide (MTT) colorimetric assay. HEK293 WT and HEK293-ABCG2 cells were seeded into 96-well culture plates at a 1.5 × 10^4 cells/well density. After overnight incubation, the cells were treated with various concentrations of compounds (0–100 µM) for 72 h at 37 °C under 5% CO2. […] Sensitization experiments were also carried out on H460 and H460MX20 cells. For these experiments, H460 and H460MX20 cells were seeded into 96-well culture plates at 1.0 × 10^4 cells/well density. […] After the treatment, the culture medium was removed and 100 μL of a 0.5 mg.mL^−1 MTT solution was added. Cells were then incubated for 4 h at 37 °C under 5% CO2. The formazan crystals were dissolved with a solution of DMSO/ethanol (1:1) and the absorbance was measured at 570 nm using a Multiscan FC microplate reader (Thermo Scientific). The results were expressed as percentage of viable cells versus control cells (0.1% DMSO, v/v) taken as 100%.

ABCG2 [3] = system: ABCG2; set-up: method as in PMID 15930306; conditions: cited from earlier work
ABCG2 [4] = conditions: cited from earlier work
HEK293 WT cells = assay: SN-38 cytotoxicity in control cells, MTT assay; type: cell-based, human
Method: as §1

ABCG2 [5] = molecular target: T1, ABCG2; conditions: previously published data, cited from earlier work
[6] = HEK293-ABCG2 cells, mitoxantrone 10 µM, 30 min, read-out: IC50 (µM) ± SD, inhibition of ABCG2-mediated mitoxantrone efflux

Structure (SMILES)	melting point [°C]	IC50 (ABCG2 [1]; [6]) [µM]	inhibition at 30 min (ABCG2 [1]; HEK293-ABCG2 cells) [%]	TR, therapeutic ratio (IG50/IC50) (ABCG2 [1])	also measured
COc1ccccc1CCn1c2c(c3c1-c1ccccc1C3=O)C(=O)CC(C)C2 (centres unmarked) [5a, 5-(2-Methoxyphenethyl)-7-methyl-5,6,7,8-tetrahydroindeno[1,2-b]indole-9,10-dione]	204	0.25 ± 0.01	72.5 ± 3.72	> 393.60	–
O=C1c2ccccc2-c2c1c1c(n2CCc2ccccc2)CCC(Cc2ccccc2)C1=O (centres unmarked) [5b, 8-Benzyl-5-phenethyl-5,6,7,8-hexahydroindeno[1,2-b]indole-9,10-dione]	–	0.45 ± 0.1	113 ± 3.67	28.10	–
COc1ccc2[nH]cc(CCn3c4c(c5c3-c3ccccc3C5=O)C(=O)CCC4)c2c1 [5c, 5-(2-(5-Methoxy-1H-indol-3-yl)ethyl)-5,6,7,8-tetrahydroindeno[1,2-b]indole-9,10-dione]	279	0.65 ± 0.03	60 ± 4.04	56.41	–
COc1cccc(CCn2c3c(c4c2-c2cc(O)ccc2C4=O)C(=O)CCC3)c1 [5d, 3-Hydroxy-5-(3-methoxyphenethyl)-5,6,7,8-tetrahydroindeno[1,2-b]indole-9,10-dione]	222	2.71 ± 0.14	68.5 ± 0.68	9.85	–
CC1CC(=O)c2c3c(n(CCc4ccccc4)c2C1)-c1cccc(O)c1C3=O (centres unmarked) [5f, 1-Hydroxy-7-Methyl-5-phenethyl-5,6,7,8-tetrahydroindeno[1,2-b]indole-9,10-dione]	246	0.18 ± 0.02	48.4 ± 0.8	153.24	–
CC1CC(=O)c2c3c(n(CCc4ccccc4)c2C1)-c1c(O)cccc1C3=O (centres unmarked) [5g, 4-Hydroxy-7-methyl-5-phenethyl-5,6,7,8-tetrahydroindeno[1,2-b]indole-9,10-dione]	283	0.44 ± 0.03	65.2 ± 0.94	58.79	–
COc1ccccc1CCn1c2c(c3c1-c1cccc(O)c1C3=O)C(=O)CCC2 [5h, 1-Hydroxy-5-(2-methoxyphenethyl)-5,6,7,8-tetrahydroindeno[1,2-b]indole-9,10-dione]	173	0.42 ± 0.07	69.6 ± 1.14	57.21	–
COc1ccccc1CCn1c2c(c3c1-c1cccc(O)c1C3=O)C(=O)CC(C)C2 (centres unmarked) [5i, 1-Hydroxy-7-methyl-5-(2-methoxyphenethyl)-5,6,7,8-tetrahydroindeno[1,2-b]indole-9,10-dione]	–	0.07 ± 0.02	62.83 ± 0.48	293.66	IC50 at 72 h [2]: 20 µM
COc1ccccc1CCn1c2c(c3c1-c1cccc(OCC=C(C)C)c1C3=O)C(=O)CCC2 [5j, 5-(2-Methoxyphenethyl)-1-(3-methylbut-2-enyloxy)-5,6,7,8-tetrahydroindeno[1,2-b]indole-9,10-dione]	118	0.48 ± 0.08	85.6 ± 2.59	32.86	–
COc1ccccc1CCn1c2c(c3c1-c1c(OCC=C(C)C)cccc1C3=O)C(=O)CCC2 [5k, 5-(2-Methoxyphenethyl)-4-(3-methylbut-2-enyloxy)-5,6,7,8-hexahydroindeno[1,2-b]indole-9,10-dione]	–	0.92 ± 0.1	116 ± 2.36	22.85	–
COc1ccccc1CCn1c2c(c3c1-c1cccc(OCC=C(C)C)c1C3=O)C(=O)CC(C)C2 (centres unmarked) [5l, 5-(2-Methoxyphenethyl)-7-methyl-1-((3-methylbut-2-enyl)oxy)-5,6,7,8-tetrahydroindeno[1,2-b]indole-9,10-dione]	–	0.24 ± 0.03	82.3 ± 3.44	59.72	–
COc1ccccc1CCn1c2c(c3c1-c1c(OCC=C(C)C)cccc1C3=O)C(=O)CC(C)C2 (centres unmarked) [5m, 5-(2-Methoxyphenethyl)-7-methyl-4-((3-methylbut-2-enyl)oxy)-5,6,7,8-hexahydroindeno[1,2-b]indole-9,10-dione]	–	0.19 ± 0.07	87.4 ± 2.46	66.23	–
CC(C)=CCOc1cccc2c1-c1c(c3c(n1CCc1ccccc1)CC(C)CC3=O)C2=O (centres unmarked) [5n]	–	4.09 ± 0.56	133 ± 3.35	5.26	–
CC(C)=CCc1c(O)cc2oc(-c3ccccc3)cc(=O)c2c1O [6-prenylchrysin]	–	–	–	–	Maximal inhibition of ABCG2 (ABCG2 [3]): approximately 70%
COc1cc2c(cc1OC)-c1c(c3c(O)cc(C)cc3n1CCc1ccccc1)C2=O [6e, 9-Hydroxy-2,3-dimethoxy-7-methyl-5-phenethylindeno[1,2-b]indol-10(5H)-one]	198	–	66.8 ± 1.79	212.38	IC50 (ABCG2 [1]): 0.2 ± 0.04 µM
COc1ccc2c3c([nH]c2c1)[C@H](CC(C)C)N1C(=O)[C@H](CCC(=O)OC(C)(C)C)NC(=O)[C@@H]1C3 [Ko143]	–	–	–	–	Effect on the ATPase activity of ABCG2 (ABCG2 [4]): inhibit the ATPase activity
CCc1c2c(nc3ccc(O)cc13)-c1cc3c(c(=O)n1C2)COC(=O)[C@]3(O)CC [SN-38]	–	–	–	–	FR, fold reversal (HEK293 WT cells; SN-38 alone (reference)): 1.00; IC50 (HEK293 WT cells; SN-38 alone, 72 h, read-out: IG50 (SN-38 nM ± SD)): 8.24 nM and 7.53 nM and 10 nM and 7.58 nM
O=C1c2c(O)ccc(O)c2C(=O)c2c(NCCNCCO)ccc(NCCNCCO)c21 [mitoxantrone]	–	–	–	–	Stimulation of the ATPase activity of ABCG2 (ABCG2 [4]): 40%
CC1CC(=O)c2c3c(n(CCc4ccccc4)c2C1)-c1ccccc1C3=O (centres unmarked) [p4h]	–	–	–	–	TR, therapeutic ratio (IG50/IC50) (ABCG2 [5]): > 435.00
COc1ccccc1CCn1c2c(c3c1-c1ccccc1C3=O)C(=O)CCC2 [p4j]	–	–	–	–	TR, therapeutic ratio (IG50/IC50) (ABCG2 [5]): 130.00
COc1cccc(CCn2c3c(c4c2-c2ccccc2C4=O)C(=O)CCC3)c1 [p4k]	–	–	–	–	TR, therapeutic ratio (IG50/IC50) (ABCG2 [5]): 41.00
Cc1cc(O)c2c3c(n(CCc4ccccc4)c2c1)-c1ccccc1C3=O [p5h]	–	–	–	–	TR, therapeutic ratio (IG50/IC50) (ABCG2 [5]): 360.00; IC50 (ABCG2 [5]; read-out: IC50 (µM) ± SD, inhibition of ABCG2-mediated mitoxantrone efflux): 0.15 ± 0.01 µM
COc1cc2nc(N3CCN(C(=O)c4ccco4)CC3)nc(N)c2cc1OC [prazosin]	–	–	–	–	Stimulation of the ATPase activity of ABCG2 (ABCG2 [4]): 100%
